# Results published in PubChem BioAssay (NCI).
#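 A five-concentration, 48-hour dose response in 96-well plates underlies each endpoint, interpolated linearly between surrounding concentrations. TGI denotes the concentration required for complete inhibition of growth.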
# How the values were obtained:
# Assay in all cases: inhibition of tumour cell growth, NCI panel, 48 h
# [1] = test system: NCI-H460 lung
# [2] = test system: DU-145 prostate
# [3] = test system: SNB-19 CNS
# [4] = test system: HCT-116 colon
# [5] = test system: PC-3 prostate
# [6] = test system: KM12 colon
# [7] = test system: U251 CNS
# [8] = test system: HT29 colon
# [9] = test system: T-47D breast
# [10] = test system: SR leukemia
# [11] = test system: IGROV1 ovarian
# [12] = test system: HOP-62 NSCLC
# [13] = test system: UACC-62 melanoma
# [14] = test system: NCI-H23 lung
# [15] = test system: UACC-257 melanoma
# [16] = test system: EKVX NSCLC
# [17] = test system: OVCAR-8 ovarian
# [18] = test system: SK-MEL-5 melanoma
# [19] = test system: MDA-MB-231 breast
# [20] = test system: A498 renal
# [21] = test system: SK-MEL-2 melanoma
# [22] = test system: SF-539 CNS
# [23] = test system: SN12C renal
# [24] = test system: MALME-3M melanoma
# [25] = test system: OVCAR-4 ovarian
# [26] = test system: SNB-75 CNS
# [27] = test system: SF-268 CNS
# [28] = test system: A549 NSCLC
# [29] = test system: SF-295 CNS
# [30] = test system: OVCAR-3 ovarian
# [31] = test system: MCF7 breast
# [32] = test system: HCT-15 colon
# [33] = test system: SW-620 colon
# [34] = test system: K-562 leukemia
# [35] = test system: MOLT-4 leukemia
# [36] = test system: ACHN renal
# [37] = test system: BT-549 breast
# [38] = test system: LOX IMVI melanoma
# [39] = test system: RXF 393 renal
# [40] = test system: HCC-2998 colon
# [41] = test system: MDA-MB-435
# [42] = test system: NCI/ADR-RES ovarian
# [43] = test system: OVCAR-5 ovarian
# [44] = test system: MDA-N
# [45] = test system: TK-10 renal
# [46] = test system: CAKI-1 renal
# [47] = test system: 786-0 renal
# [48] = test system: NCI-H522 lung
# [49] = test system: COLO 205 colon
# [50] = test system: NCI-H226 lung
# [51] = test system: SK-MEL-28 melanoma
# [52] = test system: SK-OV-3 ovarian
# [53] = test system: HOP-92 NSCLC
# [54] = test system: HL-60(TB) leukemia
# [55] = test system: M14 melanoma
# [56] = test system: CCRF-CEM leukemia
# [57] = test system: UO-31 renal
# [58] = test system: RPMI-8226 leukemia
# [59] = test system: HS 578T breast
smiles,measurement,setting,value
COc1ccc(/C=C2/SC(c3c(O)ccc4ccccc34)N(NC(=O)CCCCCCCCC(=O)NN3C(=O)/C(=C\c4ccc(OC)c(OC)c4)SC3c3c(O)ccc4ccccc34)C2=O)cc1OC (stereo not given),TGI,[1],> 100 µM
same,TGI,[2],> 100 µM
same,TGI,[3],> 91.7 µM
same,TGI,[4],> 100 µM
same,TGI,[5],> 100 µM
same,TGI,[6],> 100 µM
same,TGI,[7],96.8 µM
same,TGI,[8],> 100 µM
same,TGI,[9],48.9 µM
same,TGI,[10],1.62 µM
same,TGI,[11],10.7 µM
same,TGI,[12],> 39.8 µM
same,TGI,[13],11.2 µM
same,TGI,[14],> 75 µM
same,TGI,[15],> 28.5 µM
same,TGI,[16],> 100 µM
same,TGI,[17],20.2 µM
same,TGI,[18],2.29 µM
same,TGI,[19],> 91.7 µM
same,TGI,[20],49.3 µM
same,TGI,[21],> 41.6 µM
same,TGI,[22],46 µM
same,TGI,[23],> 100 µM
same,TGI,[24],51.4 µM
same,TGI,[25],> 100 µM
same,TGI,[26],> 100 µM
same,TGI,[27],> 100 µM
same,TGI,[28],> 21.4 µM
same,TGI,[29],> 100 µM
same,TGI,[30],> 58.5 µM
same,TGI,[31],> 100 µM
same,TGI,[32],> 100 µM
same,TGI,[33],> 100 µM
same,TGI,[34],17 µM
same,TGI,[35],2.9 µM
same,TGI,[36],> 54.1 µM
same,TGI,[37],> 100 µM
same,TGI,[38],12.8 µM
same,TGI,[39],> 79.7 µM
same,TGI,[40],> 100 µM
same,TGI,[41],> 100 µM
same,TGI,[42],32.1 µM
same,TGI,[43],> 100 µM
same,TGI,[44],> 100 µM
same,TGI,[45],> 100 µM
same,TGI,[46],> 100 µM
same,TGI,[47],> 20.5 µM
same,TGI,[48],> 100 µM
same,TGI,[49],> 29.9 µM
same,TGI,[50],15.9 µM
same,TGI,[51],> 100 µM
same,TGI,[52],> 52.9 µM
same,TGI,[53],23.3 µM
Clc1nc(Nc2nc3ccccc3[nH]2)nc(Cl)c1-c1ccccc1,TGI,[1],28.7 µM
same,TGI,[54],> 100 µM
same,TGI,[55],98 µM
same,TGI,[56],66.5 µM
same,TGI,[2],> 100 µM
same,TGI,[3],> 100 µM
same,TGI,[4],> 100 µM
same,TGI,[5],60.1 µM
same,TGI,[6],> 100 µM
same,TGI,[7],32.7 µM
same,TGI,[8],34.9 µM
same,TGI,[9],> 100 µM
same,TGI,[10],> 100 µM
same,TGI,[11],54.2 µM
same,TGI,[13],36.9 µM
same,TGI,[14],58.4 µM
same,TGI,[15],80.2 µM
same,TGI,[16],71.4 µM
same,TGI,[17],69.4 µM
same,TGI,[18],53.5 µM
same,TGI,[57],42.4 µM
same,TGI,[19],29.1 µM
same,TGI,[20],60.6 µM
same,TGI,[21],55.9 µM
same,TGI,[22],34.6 µM
same,TGI,[23],31.1 µM
same,TGI,[24],38.6 µM
same,TGI,[25],32.8 µM
same,TGI,[26],39.7 µM
same,TGI,[27],> 100 µM
same,TGI,[58],> 100 µM
same,TGI,[28],> 100 µM
same,TGI,[29],46.8 µM
same,TGI,[32],34.2 µM
same,TGI,[33],35.6 µM
same,TGI,[34],> 100 µM
same,TGI,[35],> 100 µM
same,TGI,[36],34.7 µM
same,TGI,[37],42.5 µM
same,TGI,[59],56.4 µM
same,TGI,[39],35.6 µM
same,TGI,[41],> 100 µM
same,TGI,[42],92.7 µM
same,TGI,[43],59.6 µM
same,TGI,[44],23.7 µM
same,TGI,[45],> 100 µM
same,TGI,[46],> 100 µM
same,TGI,[47],34.6 µM
same,TGI,[48],42.5 µM
same,TGI,[49],51.3 µM
same,TGI,[50],46.4 µM
same,TGI,[51],27 µM
same,TGI,[52],50.5 µM
same,TGI,[53],35 µM
COc1cc(C2SCC(=O)N2NC(=O)c2ccc(NC(C)=O)cc2OC)ccc1O (stereo not given),TGI,[54],> 100 µM
same,TGI,[55],> 100 µM
same,TGI,[56],> 100 µM
same,TGI,[2],> 100 µM
same,TGI,[3],> 100 µM
same,TGI,[4],> 100 µM
same,TGI,[5],> 100 µM
same,TGI,[8],> 100 µM
same,TGI,[9],> 100 µM
same,TGI,[10],> 100 µM
same,TGI,[11],> 100 µM
same,TGI,[12],36.7 µM
same,TGI,[13],> 100 µM
same,TGI,[14],> 100 µM
same,TGI,[16],> 100 µM
same,TGI,[17],62.9 µM
same,TGI,[57],> 100 µM
same,TGI,[20],> 100 µM
same,TGI,[21],68.6 µM
same,TGI,[22],> 100 µM
same,TGI,[23],79.8 µM
same,TGI,[24],> 100 µM
same,TGI,[25],> 100 µM
same,TGI,[26],46.7 µM
same,TGI,[27],99 µM
same,TGI,[58],> 100 µM
same,TGI,[28],> 100 µM
same,TGI,[29],47 µM
same,TGI,[30],> 100 µM
same,TGI,[31],> 100 µM
same,TGI,[32],> 100 µM
same,TGI,[33],> 100 µM
same,TGI,[34],> 100 µM
same,TGI,[35],> 100 µM
same,TGI,[36],> 100 µM
same,TGI,[37],> 100 µM
same,TGI,[38],> 100 µM
same,TGI,[59],> 100 µM
same,TGI,[39],> 100 µM
same,TGI,[41],> 100 µM
same,TGI,[42],> 100 µM
same,TGI,[43],65.1 µM
same,TGI,[44],> 100 µM
same,TGI,[46],> 100 µM
same,TGI,[47],> 100 µM
same,TGI,[48],> 100 µM
same,TGI,[49],> 100 µM
same,TGI,[51],> 100 µM
same,TGI,[52],26.7 µM
same,TGI,[53],73.9 µM
NC(Cc1ccc(O)cn1)C(=O)O (stereo not given),TGI,[1],> 100 µM
same,TGI,[54],> 100 µM
same,TGI,[2],> 100 µM
same,TGI,[3],> 100 µM
same,TGI,[4],> 100 µM
same,TGI,[5],> 100 µM
same,TGI,[6],> 100 µM
same,TGI,[7],> 100 µM
same,TGI,[8],> 100 µM
same,TGI,[10],> 100 µM
same,TGI,[11],> 100 µM
same,TGI,[12],> 100 µM
same,TGI,[14],> 100 µM
same,TGI,[15],> 100 µM
same,TGI,[16],> 100 µM
same,TGI,[17],> 100 µM
same,TGI,[18],> 100 µM
same,TGI,[57],> 100 µM
same,TGI,[19],> 100 µM
same,TGI,[20],> 100 µM
same,TGI,[22],> 100 µM
same,TGI,[23],> 100 µM
same,TGI,[24],> 100 µM
same,TGI,[25],> 100 µM
same,TGI,[26],> 100 µM
same,TGI,[27],> 100 µM
same,TGI,[58],> 100 µM
same,TGI,[28],> 100 µM
same,TGI,[29],> 100 µM
same,TGI,[30],> 100 µM
same,TGI,[31],> 100 µM
same,TGI,[32],> 100 µM
same,TGI,[33],> 100 µM
same,TGI,[34],> 100 µM
same,TGI,[35],> 100 µM
same,TGI,[36],> 100 µM
same,TGI,[37],> 100 µM
same,TGI,[38],> 100 µM
same,TGI,[59],> 100 µM
same,TGI,[39],> 100 µM
same,TGI,[40],> 100 µM
same,TGI,[41],> 100 µM
same,TGI,[42],> 100 µM
same,TGI,[43],> 100 µM
same,TGI,[44],> 100 µM
same,TGI,[45],> 100 µM
same,TGI,[46],> 100 µM
same,TGI,[47],> 100 µM
same,TGI,[48],> 100 µM
same,TGI,[49],> 100 µM
same,TGI,[50],> 100 µM
same,TGI,[51],> 100 µM
same,TGI,[53],> 100 µM
